Measurements taken from patent US6531573B1, “Antifungal and antibacterial peptides” (Trustees of Boston University, priority 1997, dated 2003).

What was measured:
Clostripain = target: T1, Clostripain (Hathewaya histolytica, UniProt P09870); assay: Clostripain inhibition; type: biochemical; conditions: endopeptidase of Clostridium histolyticum
T1 construct: purchased Sigma Chemical Corp., St. Louis, Mo
Procedure: Clostripain from Clostridium histolyticum (Sigma Chemical Corp., St. Louis, Mo.) is dissolved in deionized water to a concentration of 1 mg/ml (300 units/mg) and activated with the addition of 10 mmol/L DTT. To measure its hydrolytic activity, clostripain ( 6 units) is added to […] Hepes buffer, pH 7.5, containing 80 μmol/L BAPNA (benzoyl-arginine-p-nitroanilide), together with 5.6 μmol/L of histatin peptide inhibitor. As controls, assays are performed in the absence of any histatin peptide inhibitor. The activity is monitored continuously at 405 nm using a Molecular Devices Vmax microtitre plate reader. The activities are determined from the maximum rates of substrate hydrolysis. Assays are done in duplicate, and the means normalized to the controls.

P. gingivalis 381 = conditions: cited from earlier work

T1 sequence (P09870 191-526): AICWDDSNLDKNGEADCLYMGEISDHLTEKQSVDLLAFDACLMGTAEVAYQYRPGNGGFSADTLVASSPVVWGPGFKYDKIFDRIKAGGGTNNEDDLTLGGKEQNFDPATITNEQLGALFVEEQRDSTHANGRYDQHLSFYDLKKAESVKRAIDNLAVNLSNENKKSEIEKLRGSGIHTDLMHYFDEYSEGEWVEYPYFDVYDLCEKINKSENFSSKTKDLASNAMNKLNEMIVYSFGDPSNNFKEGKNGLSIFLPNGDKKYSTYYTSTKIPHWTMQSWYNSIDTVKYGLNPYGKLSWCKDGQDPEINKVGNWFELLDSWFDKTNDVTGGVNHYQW
T1 sequence (P09870 51-181): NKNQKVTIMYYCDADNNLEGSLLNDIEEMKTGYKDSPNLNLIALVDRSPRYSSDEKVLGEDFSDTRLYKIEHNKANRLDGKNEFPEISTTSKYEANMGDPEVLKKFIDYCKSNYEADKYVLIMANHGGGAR

Substance: histatin 5
- inhibition of clostripain (in words) (Clostripain): can be inhibited
- concentration giving complete hemagglutination inhibition (P. gingivalis 381): 5 nmol/mL
- inhibition of hemagglutination (in words) (P. gingivalis 381): inhibit hemagglutination
